Paper PMC7549094 (Journal of Medicinal Chemistry, 2020)
pIC50: −log10 of the molar value.

Columns and labels:
L. donovani = assay: murine model of visceral leishmaniasis, liver parasite burden by qPCR; format: in vivo; details: mice infected with L. donovani; 1 mg/kg b.i.d. PO, 8 days
From the text: Formulation of study drugs for in vivo efficacy experiments. LXE408 administered to mice during efficacy experiments was formulated as a suspension in distilled water containing 0.5% methylcellulose and 0.5% Tween-80 (mouse model of visceral leishmaniasis) or hydroxypropylcellulose and Tween-80 (mouse models of cutaneous leishmaniasis). Miltefosine was formulated as a solution in distilled water containing 0.5% methylcellulose and 0.5% Tween-80.
Mouse model of visceral leishmaniasis. Female BALB/c mice (6-8 weeks old) were infected by tail vein injection with 4x 107 L. donovani MHOM/ET/67/HU3 splenic amastigotes. Seven days after infection, animals were orally dosed for 8 days with vehicle (0.5% MC/0.5% Tween-80 in distilled water), miltefosine (12 mg/kg once-daily), or LXE408 (twice-daily). At the end of treatment, liver samples were collected and L. donovani parasite burdens were quantified by qPCR as follows. L. donovani genomic DNA was extracted from drug-treated mice livers using the DNeasy Blood and Tissue Kit (Qiagen). Two types of DNA were quantified in parallel using the TaqMan assays for L. donovani major surface

[1] = metabolite profile in rat hepatocytes; format: in vitro ADME; details: 10 μM of 1 for 4 h, UV 250 nm, normalized to largest peak
hr TP antag = target: T1, hr TP antag (Homo sapiens, UniProt P21731); assay: receptor profile (Table S4); format: biochemical
T1 sequence (P21731 1-343): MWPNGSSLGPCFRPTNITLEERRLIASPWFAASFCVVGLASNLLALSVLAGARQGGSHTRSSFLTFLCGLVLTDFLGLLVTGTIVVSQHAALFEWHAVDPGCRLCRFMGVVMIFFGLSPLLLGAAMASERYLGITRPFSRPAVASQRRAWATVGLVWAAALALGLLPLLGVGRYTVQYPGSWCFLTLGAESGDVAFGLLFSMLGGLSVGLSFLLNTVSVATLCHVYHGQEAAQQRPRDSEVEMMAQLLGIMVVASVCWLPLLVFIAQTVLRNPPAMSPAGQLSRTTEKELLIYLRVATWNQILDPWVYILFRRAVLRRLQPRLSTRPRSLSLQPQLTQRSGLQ

h AdT = target: T2, h AdT (Homo sapiens, UniProt Q99808); assay: receptor profile (Table S4); format: binding
T2 sequence (Q99808 2-456 limits assumed): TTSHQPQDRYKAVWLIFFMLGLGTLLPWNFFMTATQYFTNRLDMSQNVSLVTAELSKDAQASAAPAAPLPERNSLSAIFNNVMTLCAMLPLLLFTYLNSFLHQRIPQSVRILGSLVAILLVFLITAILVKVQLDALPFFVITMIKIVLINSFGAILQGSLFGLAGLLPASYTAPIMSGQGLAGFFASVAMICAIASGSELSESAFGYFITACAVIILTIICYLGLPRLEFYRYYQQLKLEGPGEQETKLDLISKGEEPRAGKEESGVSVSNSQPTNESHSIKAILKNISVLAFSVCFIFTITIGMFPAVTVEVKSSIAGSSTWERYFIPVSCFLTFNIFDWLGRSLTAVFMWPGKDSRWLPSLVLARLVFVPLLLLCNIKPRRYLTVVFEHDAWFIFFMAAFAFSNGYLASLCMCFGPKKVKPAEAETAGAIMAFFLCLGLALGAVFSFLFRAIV

hr Alpha2C = target: T3, hr Alpha2C (Homo sapiens, UniProt P18825); assay: receptor profile (Table S4); format: binding
T3 sequence (P18825 1-462): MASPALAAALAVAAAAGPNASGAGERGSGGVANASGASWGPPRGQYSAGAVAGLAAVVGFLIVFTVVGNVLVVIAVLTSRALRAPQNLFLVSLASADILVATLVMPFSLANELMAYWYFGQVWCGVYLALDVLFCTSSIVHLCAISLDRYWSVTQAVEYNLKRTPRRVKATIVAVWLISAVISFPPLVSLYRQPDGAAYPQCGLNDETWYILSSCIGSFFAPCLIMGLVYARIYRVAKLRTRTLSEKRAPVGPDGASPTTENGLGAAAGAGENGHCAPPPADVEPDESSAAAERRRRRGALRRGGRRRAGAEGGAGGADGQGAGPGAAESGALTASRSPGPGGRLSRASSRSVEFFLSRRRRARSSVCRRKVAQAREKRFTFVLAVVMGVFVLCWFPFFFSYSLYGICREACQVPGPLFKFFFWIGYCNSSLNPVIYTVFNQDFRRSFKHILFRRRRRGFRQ

hr D1 ag = hr D1 ag (Homo sapiens, UniProt P21728); assay: receptor profile (Table S4); format: biochemical
hr D1 ag, sequence (P21728 whole entry): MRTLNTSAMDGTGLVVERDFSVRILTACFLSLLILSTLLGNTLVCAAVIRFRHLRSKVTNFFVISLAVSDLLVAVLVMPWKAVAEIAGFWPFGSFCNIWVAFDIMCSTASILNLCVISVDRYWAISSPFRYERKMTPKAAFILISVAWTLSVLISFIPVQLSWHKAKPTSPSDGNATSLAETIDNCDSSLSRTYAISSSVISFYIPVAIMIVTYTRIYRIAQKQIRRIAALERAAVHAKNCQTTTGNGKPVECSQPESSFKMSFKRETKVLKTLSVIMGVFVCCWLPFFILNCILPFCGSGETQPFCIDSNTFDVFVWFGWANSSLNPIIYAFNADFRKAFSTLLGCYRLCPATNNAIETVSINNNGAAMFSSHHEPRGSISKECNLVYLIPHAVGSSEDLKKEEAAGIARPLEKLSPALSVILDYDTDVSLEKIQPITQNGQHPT

hr D1 antag = hr D1 antag (Homo sapiens, UniProt P21728); assay: receptor profile (Table S4); format: biochemical
hr D1 antag, sequence (P21728 whole entry): as above

hr 5-HT2B ag = hr 5-HT2B ag (Homo sapiens, UniProt P41595); assay: receptor profile (Table S4); format: biochemical
hr 5-HT2B ag, sequence (P41595 whole entry): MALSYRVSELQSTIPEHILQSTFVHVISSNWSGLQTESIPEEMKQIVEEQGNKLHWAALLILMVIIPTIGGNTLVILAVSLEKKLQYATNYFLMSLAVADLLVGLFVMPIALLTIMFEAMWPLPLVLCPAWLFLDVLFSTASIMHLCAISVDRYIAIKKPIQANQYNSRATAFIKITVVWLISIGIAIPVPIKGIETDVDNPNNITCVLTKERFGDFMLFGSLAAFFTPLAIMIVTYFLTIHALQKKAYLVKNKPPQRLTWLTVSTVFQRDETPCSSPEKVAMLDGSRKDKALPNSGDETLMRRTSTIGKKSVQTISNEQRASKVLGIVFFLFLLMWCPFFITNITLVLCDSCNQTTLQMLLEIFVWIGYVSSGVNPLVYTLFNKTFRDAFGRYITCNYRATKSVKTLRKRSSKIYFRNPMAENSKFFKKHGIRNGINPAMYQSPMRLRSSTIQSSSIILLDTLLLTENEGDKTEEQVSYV

hr MC3 = hr MC3 (Homo sapiens, UniProt P41968); assay: receptor profile (Table S4); format: binding
hr MC3, sequence (P41968 whole entry): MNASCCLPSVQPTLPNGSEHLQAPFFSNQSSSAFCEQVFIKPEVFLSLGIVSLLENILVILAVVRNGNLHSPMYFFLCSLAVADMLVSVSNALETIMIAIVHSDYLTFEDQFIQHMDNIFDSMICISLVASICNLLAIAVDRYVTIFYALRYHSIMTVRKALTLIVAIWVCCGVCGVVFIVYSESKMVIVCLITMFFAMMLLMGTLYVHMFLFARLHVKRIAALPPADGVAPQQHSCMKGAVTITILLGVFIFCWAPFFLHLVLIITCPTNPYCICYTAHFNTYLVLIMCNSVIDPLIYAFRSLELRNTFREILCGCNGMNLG

hr MAOA = target: T4, hr MAOA (Homo sapiens, UniProt P21397); assay: receptor profile (Table S4); format: biochemical
T4 sequence (P21397 1-527): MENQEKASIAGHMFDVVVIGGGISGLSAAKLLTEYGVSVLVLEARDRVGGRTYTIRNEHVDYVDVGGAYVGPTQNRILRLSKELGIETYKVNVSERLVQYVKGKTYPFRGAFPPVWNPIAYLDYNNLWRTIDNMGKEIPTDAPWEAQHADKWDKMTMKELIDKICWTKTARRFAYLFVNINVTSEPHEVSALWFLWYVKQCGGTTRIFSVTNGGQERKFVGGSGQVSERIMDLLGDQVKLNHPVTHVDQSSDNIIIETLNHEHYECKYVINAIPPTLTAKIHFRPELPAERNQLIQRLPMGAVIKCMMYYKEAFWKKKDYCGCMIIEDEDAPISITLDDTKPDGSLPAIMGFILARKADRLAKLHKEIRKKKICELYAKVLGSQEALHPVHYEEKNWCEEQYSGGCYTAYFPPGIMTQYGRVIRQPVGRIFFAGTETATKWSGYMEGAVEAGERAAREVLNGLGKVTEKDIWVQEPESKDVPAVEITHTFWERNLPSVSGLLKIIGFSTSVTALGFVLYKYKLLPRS

PXR = PXR (Homo sapiens, UniProt O75469); assay: receptor profile (Table S4); details: human
PXR, sequence (O75469 whole entry): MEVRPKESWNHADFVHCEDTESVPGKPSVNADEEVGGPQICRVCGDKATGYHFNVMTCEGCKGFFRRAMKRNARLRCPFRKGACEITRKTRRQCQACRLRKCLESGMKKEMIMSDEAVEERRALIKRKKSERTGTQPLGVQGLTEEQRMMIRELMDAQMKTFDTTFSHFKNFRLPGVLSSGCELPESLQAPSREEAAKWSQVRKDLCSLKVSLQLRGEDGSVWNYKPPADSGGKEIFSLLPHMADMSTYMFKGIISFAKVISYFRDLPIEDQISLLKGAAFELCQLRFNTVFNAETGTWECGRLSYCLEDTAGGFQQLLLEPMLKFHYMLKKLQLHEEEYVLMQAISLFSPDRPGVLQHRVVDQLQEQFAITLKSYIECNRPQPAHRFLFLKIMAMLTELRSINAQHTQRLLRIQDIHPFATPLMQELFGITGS

hr PXR ag = hr PXR ag (Homo sapiens, UniProt O75469); assay: receptor profile (Table S4); details: hr PXR ag
hr PXR ag, sequence (O75469 whole entry): as above

hERG = hERG (Homo sapiens, UniProt Q12809); assay: hERG manual patch clamp assay; details: read-out: hERG channel IC50
hERG, sequence (Q12809 whole entry): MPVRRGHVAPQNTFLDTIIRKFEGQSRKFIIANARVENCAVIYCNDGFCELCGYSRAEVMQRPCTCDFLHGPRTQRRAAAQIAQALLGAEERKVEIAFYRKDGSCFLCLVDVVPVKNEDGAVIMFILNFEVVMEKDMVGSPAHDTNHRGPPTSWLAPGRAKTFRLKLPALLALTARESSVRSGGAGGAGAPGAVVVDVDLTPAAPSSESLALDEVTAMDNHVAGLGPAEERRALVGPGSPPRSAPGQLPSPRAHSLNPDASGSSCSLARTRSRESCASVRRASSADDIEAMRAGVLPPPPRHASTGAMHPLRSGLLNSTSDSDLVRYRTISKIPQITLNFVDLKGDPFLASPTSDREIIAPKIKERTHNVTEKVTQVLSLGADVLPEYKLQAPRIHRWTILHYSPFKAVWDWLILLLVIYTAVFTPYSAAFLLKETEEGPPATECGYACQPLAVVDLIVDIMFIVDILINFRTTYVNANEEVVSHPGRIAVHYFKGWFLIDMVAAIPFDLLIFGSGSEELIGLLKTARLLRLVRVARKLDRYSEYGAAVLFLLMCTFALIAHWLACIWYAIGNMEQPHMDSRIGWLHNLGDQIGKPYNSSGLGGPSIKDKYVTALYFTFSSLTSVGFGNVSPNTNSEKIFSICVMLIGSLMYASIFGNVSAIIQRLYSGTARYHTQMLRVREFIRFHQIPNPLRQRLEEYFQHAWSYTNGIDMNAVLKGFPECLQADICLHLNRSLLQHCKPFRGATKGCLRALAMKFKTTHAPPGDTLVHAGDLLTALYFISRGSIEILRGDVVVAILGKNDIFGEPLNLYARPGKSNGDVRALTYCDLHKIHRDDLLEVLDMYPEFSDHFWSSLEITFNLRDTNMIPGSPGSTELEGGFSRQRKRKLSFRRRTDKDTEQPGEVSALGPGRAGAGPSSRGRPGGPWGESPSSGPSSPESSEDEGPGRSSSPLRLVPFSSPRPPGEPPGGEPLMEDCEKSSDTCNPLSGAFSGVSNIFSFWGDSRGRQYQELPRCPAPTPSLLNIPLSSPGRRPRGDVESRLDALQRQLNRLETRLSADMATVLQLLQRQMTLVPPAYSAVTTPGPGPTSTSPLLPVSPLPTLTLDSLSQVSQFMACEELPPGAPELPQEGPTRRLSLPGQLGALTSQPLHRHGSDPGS

Question: Which “reduction of parasite burden in the liver” value (L. donovani) does the source give for `Cc1nc(C)c(C(=O)Nc2ccc(F)c(-c3nc4ncc(-c5ncccc5C)cn4n3)c2)o1` [compound 1, N-(4-Fluoro-3-(6-(3-methylpyridin-2-yl)-[1,2,4]triazolo[1,5-a]pyrimidin-2-yl)phenyl)-2,4-dimethyloxazole-5-carboxamide] here?
Answer: The value was 95%.

Question: What about the abundance rat [1] of the same compound?
Answer: Its abundance rat is “+++ (+++ > 75%)”.

Question: What about the EC50/IC50 (hr TP antag; hr TP antag) of the same compound?
Answer: The EC50/IC50 was greater than 30 µM.

Question: And the inhibition at 10 µM (hr TP antag; read-out: % inh/act @ 10 µM)?
Answer: The inhibition at 10 µM was 14%.

Question: And the inhibition at 30 µM (hr TP antag; read-out: % inh/act @ 30 µM)?
Answer: Its inhibition at 30 µM is 28%.

Question: What about the EC50/IC50 (h AdT; h AdT) of the same compound?
Answer: Its EC50/IC50 is greater than 30 µM.

Question: And the inhibition at 10 µM (h AdT; read-out: % inh/act @ 10 µM)?
Answer: The inhibition at 10 µM was 28%.

Question: What about the inhibition at 30 µM (h AdT; read-out: % inh/act @ 30 µM) of the same compound?
Answer: Its inhibition at 30 µM is 42%.

Question: What about the EC50/IC50 (hr Alpha2C; hr Alpha2C) of the same compound?
Answer: The EC50/IC50 was greater than 30 µM.

Question: What about the inhibition at 10 µM (hr Alpha2C; read-out: % inh/act @ 10 µM) of the same compound?
Answer: The inhibition at 10 µM was 13%.

Question: And the inhibition at 30 µM (hr Alpha2C; read-out: % inh/act @ 30 µM)?
Answer: Its inhibition at 30 µM is 32%.

Question: And the EC50/IC50 (hr D1 ag; hr D1 ag)?
Answer: Its EC50/IC50 is greater than 30 µM.

Question: What about the inhibition at 10 µM (hr D1 ag; read-out: % inh/act @ 10 µM) of the same compound?
Answer: Its inhibition at 10 µM is 6%.

Question: And the inhibition at 30 µM (hr D1 ag; read-out: % inh/act @ 30 µM)?
Answer: The inhibition at 30 µM was 2%.

Question: What about the EC50/IC50 (hr D1 antag; hr D1 antag) of the same compound?
Answer: Its EC50/IC50 is greater than 30 µM.

Question: And the inhibition at 10 µM (hr D1 antag; read-out: % inh/act @ 10 µM)?
Answer: Its inhibition at 10 µM is -11%.

Question: And the inhibition at 30 µM (hr D1 antag; read-out: % inh/act @ 30 µM)?
Answer: Its inhibition at 30 µM is -5%.

Question: And the EC50/IC50 (hr 5-HT2B ag; hr 5-HT2B ag)?
Answer: Its EC50/IC50 is greater than 30 µM.

Question: And the inhibition at 10 µM (hr 5-HT2B ag; read-out: % inh/act @ 10 µM)?
Answer: The inhibition at 10 µM was -6%.

Question: And the inhibition at 30 µM (hr 5-HT2B ag; read-out: % inh/act @ 30 µM)?
Answer: The inhibition at 30 µM was -3%.

Question: And the EC50/IC50 (hr MC3; hr MC3)?
Answer: Its EC50/IC50 is greater than 30 µM.

Question: And the inhibition at 10 µM (hr MC3; read-out: % inh/act @ 10 µM)?
Answer: Its inhibition at 10 µM is 10%.

Question: What about the inhibition at 30 µM (hr MC3; read-out: % inh/act @ 30 µM) of the same compound?
Answer: The inhibition at 30 µM was 24%.

Question: What about the EC50/IC50 (hr MAOA; hr MAOA) of the same compound?
Answer: The EC50/IC50 was greater than 30 µM.

Question: And the inhibition at 10 µM (hr MAOA; read-out: % inh/act @ 10 µM)?
Answer: Its inhibition at 10 µM is 4%.

Question: What about the inhibition at 30 µM (hr MAOA; read-out: % inh/act @ 30 µM) of the same compound?
Answer: Its inhibition at 30 µM is 12%.

Question: What about the “% inh/act @ 10 µM” value (h PDE3) of the same compound?
Answer: Its value is 6%.

Question: What about the “% inh/act @ 30 µM” value (h PDE3) of the same compound?
Answer: The value was 4%.

Question: And the inhibition at 10 µM (PXR)?
Answer: Its inhibition at 10 µM is 0%.

Question: And the EC50/IC50 (hr PXR ag)?
Answer: Its EC50/IC50 is greater than 30 µM.

Question: What about the pIC50 (hERG) of the same compound?
Answer: The pIC50 was less than 4.52.
